For 62 compounds, melting point results are on record in a melting point compilation (Tetko et al.; mined from patent text by program, amines drawn as free bases though some values may be those of a salt).

For `CC1CCC(C2=C(O)C(=O)c3ccccc3C2=O)CC1` (configuration not stated), the melting point is 101 °C.

Regarding `COc1ccc(C)cc1NC(=O)Nc1ccc(N2CCN(C(=O)Nc3ccc(CO)cc3Cl)CC2)cc1`, the melting point fell in the range of 152 to 155 °C. Take `CCCCCCCCCCCCCCCc1cc2cc(C(=O)OCCCC)ccc2[nH]1`: the melting point fell in the range of 79 to 80 °C. In turn, `CCCn1c(=O)n(Cc2ccccc2)c(=O)c2nc(-c3ccc(/C=C/C(=O)O)cc3)[nH]c21` registered a melting point of more than 300 °C. Next, `Nc1ccc(-c2ccc(=O)[nH]n2)cc1Br`: 266 to 267 °C; `Cc1cc(OC/C=C(/c2ccc(Cl)cc2)c2ccc(C#CC(C)(C)C)cc2)ccc1OCC(=O)O`: 144 to 147 °C.

Regarding `Cc1nc(-c2ccc(Cl)cc2)sc1C(=O)NCc1ccc(OC(C)(C)C(=O)O)cc1`, the melting point is 131 °C. Take `CC(=O)Nc1cc(N2CCCCC2)nc(=N)n1O`: the melting point lay in the range of 204 to 205 °C. `Cc1c(NC(=O)C(CSC(=O)C(C)C)Cc2ccccc2)cccc1C(=O)O` (configuration not stated): the melting point lay within 178 to 183 °C. The figure for `CC12CC3OC3CC1CCC1C2CCC2(C)C(O)C(N3CCCC3)CC12` (configuration not stated) is 156 to 160 °C; for `O=[N+]([O-])c1ccc(-c2nn(-c3ccccn3)cc2C=NO)o1` it is 234 to 235 °C. Compound `Clc1cccc(Cl)c1Cc1c[nH]cn1` returned a melting point of 142 to 145 °C. `CNCC1Cc2cc(-c3ccccc3)cc(-c3ccccc3OC)c2O1` (configuration not stated) yielded a melting point of 140 to 143 °C. `Cc1ccc(S(=O)(=O)N2[C@@H](c3ncn(C)n3)CC[C@H]2c2ccc(F)cc2)cc1` (racemic): the melting point turned out to be 160 °C. Take `COC(=O)C(Cc1cc(OC)cc(OC)c1)c1ccc(Oc2ccc(CC3SC(=O)NC3=O)cc2)cc1` (configuration not stated): the melting point was in the range of 125 to 128 °C.

`CCOC(=O)Cc1c2cc(OC)ccc2n2c(Cc3ccccn3)nccc12` yielded a melting point of 103 to 104 °C.

With `Cc1onc(-c2ccccc2)c1-c1ccc(S(N)(=O)=O)cc1`, the melting point is 171 to 174 °C. Next, `CC(=O)Oc1ccc(-n2c(-c3ccccc3)cc3c2CCc2ccccc2-3)cc1C(=O)O`: 194 to 196 °C; `CC(C)(C)C1=CC(=Cc2ccc(C#N)cc2)C=C(C(C)(C)C)C1=O`: 147 to 148 °C; `CCOC(=O)c1cc(-c2ccc(Br)cc2)n(-c2ccc(S(C)(=O)=O)cc2)n1`: 176 °C. Consider `COc1cc2cc(CO)nc(-c3cccc(Cl)c3)c2cc1OC`, for which the melting point lay within 118 to 120 °C.

`CCCc1cc(=O)oc2c(C(=O)CC)c(O)cc(O)c12` registered a melting point of 244 to 246 °C.

`COCCOc1cccc(-c2ccnc3c(C(=O)c4cccs4)cnn23)c1` came in with a melting point of 112 to 116 °C. Next, `COc1cc(C)nc(NC(=O)NS(=O)(=O)c2ccccc2C(O)CF)n1` (configuration not stated): 153 to 155 °C; `Cc1cc(-c2ccc(O)nc2)cc(C=O)c1N`: 231 to 234 °C; `CN(C(=O)C1CC1)c1cccc(-c2ccnc3c(C(=O)c4ccccc4)cnn23)c1`: 168 to 170 °C. With `N#Cc1ccc(C=O)c(SCCc2ccccc2)c1`, the melting point came out at 89 °C. Compound `O=Cc1cc2c(cc1[N+](=O)[O-])OC(F)(F)O2` came in with a melting point of 36 to 38 °C. With `CC1(C)OC(=O)Nc2ccc(-c3cccc(C#N)c3)cc21`, the melting point lay in the range of 236 to 237 °C. With `NC(=S)c1cn(COCCO)c2ncnc(N)c12`, the melting point lay within 186 to 188 °C. Next, `FC(F)(F)c1ccc(-c2ccnc(Nc3cnc4ccccc4c3)c2)cc1`: 207 to 208 °C; `O=C(Nc1ccc(F)cc1F)N(Cc1ccccc1)CC1(c2ccccc2)CCCC1`: 119 to 122 °C. Next, `CC(=O)Oc1cc2c(c3ccccc13)Nc1ccccc1S2`: 184 to 185 °C; `O=C1Nc2ccc(Br)cc2C(c2ccccc2)=NC1O` (configuration not stated): 190 to 192 °C. Next, `CCCn1c(COCC)nc2c(N)nc3ccc(OCC(=O)N4CCS(=O)(=O)CC4)cc3c21`: 223 to 225 °C; `CCCC(CCC)n1nnc2c(Oc3c(Br)cc(C(C)C)cc3OC)nc(C)nc21`: 129 to 131 °C. `Cc1cc(C)n(-c2nc(Nc3ccc4ccccc4c3)c3ccccc3n2)n1` registered a melting point of 213 to 216 °C. Turning to `CCOC(=O)COc1cccc2nc3c(c(N)c12)CCCC3`, the melting point fell in the range of 141 to 142 °C. `CCOC(=O)NC(C)Cn1cc(-c2ccccc2)c2ccccc2c1=O` (configuration not stated) had a melting point of 182 °C. `COc1ccc2[nH]c(C(C)C)c(C=O)c2c1` had a melting point of 181 to 183 °C. For `COc1ccc(C=CC(=O)O)cc1-c1cc2c(cc1OCCCCCC(N)=O)C(C)(C)CCC2(C)C`, the melting point is 133 to 135 °C. `CCCCCCCCC(Cc1cccnc1)(C(=O)O)S(=O)(=O)c1ccc(OC)cc1` (configuration not stated) displayed a melting point of 159 °C. `O=C(c1ccccc1)N1CCN(c2cncc(Cl)n2)CC1` returned a melting point of 104 to 105 °C. For `Cc1ccc(-c2ccc3ccccc3c2)n1CC[C@H]1C[C@H](O)CC(=O)O1` (relative stereo), the melting point lay within 45 to 50 °C. `CC1=NC(NC(=O)Nc2cccc(C)c2)C(=O)N(CC(=O)N2CCCCCC2)c2c(C)cccc21` (configuration not stated) returned a melting point of 204 °C. Take `Cc1nnc(-c2ccc3occ(-c4ccncc4)c3c2)o1`: the melting point lay in the range of 166 to 167 °C. With `Cc1nn(CC(=O)O)cc1C(=O)Nc1ccc(OCC(C)(C)C)c(C#N)c1`, the melting point was 234 to 245 °C. Next, `COc1ccc(Cc2cnc(N)nc2N)cc1OCCNS(=O)(=O)c1ccc(N)cc1`: 207 to 208 °C; `O=C(NCCCn1ccnc1)c1ccco1`: 111 to 113 °C. Next, `Cc1cc(-c2coc3c(-c4ccc(F)cc4)c(-c4ccc(S(C)(=O)=O)cc4)nn23)ccc1Cl`: 202 to 205 °C. `O=C(CCl)CCCCc1ccc(CCCCC(=O)CCl)cc1`: the melting point was 86 to 87 °C. In turn, `COc1cc2c(cc1-c1cccnc1)-c1c(-c3cccs3)c3c(n1CC2)C(=O)N(C(C)C)CCN(C(=O)C(C)C)C3` registered a melting point of 178 to 183 °C. As for `CC(=O)C(C#N)c1cccc(Cl)c1` (configuration not stated), the melting point lay within 92 to 97 °C.

Compound `CCCOc1ccccc1-c1nc2nc(NCC)ncc2c(=O)[nH]1` gave a melting point of 181 to 182 °C. The compound `CC(CNS(C)(=O)=O)n1nnc2cc3c(=O)n(C4CC4)nnc3cc2c1=O` (configuration not stated) came in with a melting point of 195 to 197 °C.

In turn, `Cn1c(C(F)(F)F)nn(-c2cc(F)c(C#N)cc2F)c1=O` showed a melting point of 74 °C. With `COCc1c(C(=O)OC(C)C)ncc2[nH]c3cccc(Cc4ccccc4Cl)c3c12`, the melting point lay in the range of 187 to 189 °C. `CCOC(=O)C1=C(C)NC(COC(=O)c2ccccc2)=C(C(=O)OCC)C1c1ccccc1[N+](=O)[O-]` (configuration not stated) came in with a melting point of 156 to 157 °C. Take `CCCCNC(=O)C(C)n1nnc2ccc(Oc3cc(F)c(C(F)(F)F)c(Cl)c3)cc21` (configuration not stated): the melting point fell in the range of 142 to 143 °C. On to `O=C1CCCCCC1c1ncc[nH]1` (configuration not stated), for which the melting point lay in the range of 68 to 69 °C. In the case of `CC1(C)COc2ccc(C(N)=O)cc21`, the melting point was 136 to 138 °C. `O=C(CCCCCl)c1cc2c(c([N+](=O)[O-])c1)OCC2` displayed a melting point of 91 to 92 °C.
